These results are taken from US20260166128A1, “HUMAN AMYLIN ANALOG, AND DERIVATIVE THEREOF AND USE THEREOF” (priority 2022, published 2026).

Structures are written as SMILES. pEC50: −log10 of the molar value. Numbered stars: 1 amine (or outer) side, 2 acyl side, 3 side chain; on linkers, the order of the positions; unused ones are H or OH. Bridge positions count the residues as written; N and C are the ends. Square brackets hold non-standard residues; d marks the D form. Side chains are listed from the residue outwards. Peptide text beside a SMILES is read from it. * marks the point of attachment. C20 diacid = O=C(O)CCCCCCCCCCCCCCCCCCC(=O)*; C18 diacid = O=C(O)CCCCCCCCCCCCCCCCC(=O)*; γGlu = O=C(O)[C@H](CCC(=O)[*:2])N[*:1]; Hyp = O=C(O)[C@@H]1C[C@@H](O)CN1; Cit = NC(=O)NCCC[C@H](N)C(=O)O; AEEA = NCCOCCOCC(=O)O

This test deals with T1, human amylin receptor (Homo sapiens, UniProt O60896+P30988).
T1 construct: host or cells: CHO-K1/Ga15/AMY3 cells, further stably transfected with a CRE-luciferase plasmid
T1 sequence (P30988 25-474): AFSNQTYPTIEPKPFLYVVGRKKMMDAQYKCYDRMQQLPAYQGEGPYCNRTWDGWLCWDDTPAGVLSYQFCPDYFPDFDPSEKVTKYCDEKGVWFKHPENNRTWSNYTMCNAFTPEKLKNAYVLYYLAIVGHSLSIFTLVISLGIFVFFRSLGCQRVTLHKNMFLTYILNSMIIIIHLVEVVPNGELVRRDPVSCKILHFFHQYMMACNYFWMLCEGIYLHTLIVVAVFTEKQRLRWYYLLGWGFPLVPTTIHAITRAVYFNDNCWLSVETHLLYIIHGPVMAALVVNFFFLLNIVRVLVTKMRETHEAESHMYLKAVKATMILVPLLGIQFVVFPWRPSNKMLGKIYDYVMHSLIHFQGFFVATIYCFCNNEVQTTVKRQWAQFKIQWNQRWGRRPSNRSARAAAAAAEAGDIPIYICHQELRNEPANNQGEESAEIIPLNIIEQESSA
T1 sequence (O60896 24-148 partner): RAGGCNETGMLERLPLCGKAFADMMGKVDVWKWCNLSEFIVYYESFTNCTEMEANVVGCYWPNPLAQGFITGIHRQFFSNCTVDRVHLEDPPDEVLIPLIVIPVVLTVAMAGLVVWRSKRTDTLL
Kind of test: Luciferase assay of amylin derivatives in amylin receptor/CRE-luc CHO cell line. The class given is cell-based. The following applies: CHO-K1/Ga15/AMY3 CRE-luc cells, 24 hours incubation, F12 medium containing 10% FBS; read-out: EC50.
Description: The experiment was intended to detect the activity or efficacy of the amylin derivatives on a human amylin receptor in vitro by luciferase assay.
50 μL of growth medium (F12 medium containing 10% FBS) was added into each well of a white 96-well plate, and the stably transfected amylin/CRE-lue CHO cells were inoculated into the white 96-well plate at a density of about 20,000 cells/well for activity determination.
In general, pEC50 refers to −log10 of the EC50, conventionally taken in molar units. On to `CC[C@H](C)[C@H](NC(=O)[C@@H]1CCCN1C(=O)[C@H](CCCNC(N)=O)NC(=O)[C@H](CC(C)C)NC(=O)[C@H](CC(N)=O)NC(=O)[C@H](CC(N)=O)NC(=O)[C@H](CO)NC(=O)[C@H](CO)NC(=O)[C@H](Cc1c[nH]cn1)NC(=O)[C@H](CCCNC(=N)N)NC(=O)[C@H](CC(C)C)NC(=O)[C@H](Cc1ccccc1)NC(=O)[C@H](CC(=O)O)NC(=O)[C@H](C)NC(=O)[C@H](CC(C)C)NC(=O)[C@H](CCCNC(=N)N)NC(=O)[C@H](CCC(N)=O)NC(=O)[C@@H](NC(=O)[C@H](C)NC(=O)[C@@H]1CSSC[C@H](NC(=O)[C@H](CCCCN)NC(=O)CC[C@H](NC(=O)CCCCCCCCCCCCCCCCCCC(=O)O)C(=O)O)C(=O)N[C@@H](CC(N)=O)C(=O)N[C@@H]([C@@H](C)O)C(=O)N[C@@H](C)C(=O)N[C@@H]([C@@H](C)O)C(=O)N1)[C@@H](C)O)C(=O)N[C@@H](CC(C)C)C(=O)N1CCC[C@H]1C(=O)N1CCC[C@H]1C(=O)N[C@H](C(=O)N[C@@H](CC(N)=O)C(=O)N[C@H](C(=O)NCC(=O)N[C@@H](CO)C(=O)N[C@@H](CC(N)=O)C(=O)N[C@H](C(=O)N1CCC[C@H]1C(N)=O)[C@@H](C)O)C(C)C)[C@@H](C)O` [PD171] ({C20 diacid-γGlu}-KCNTATCATQRLADFLRHSSNNL[Cit]PILPPTNVGSNTP-NH2; disulfide 2-7 (inferred)), for which the pEC50 was 10.28.

Turning to `CC[C@H](C)[C@H](NC(=O)[C@@H]1CCCN1C(=O)[C@H](CCCCNC(=O)CC[C@H](NC(=O)CCCCCCCCCCCCCCCCCCC(=O)O)C(=O)O)NC(=O)[C@H](CC(C)C)NC(=O)[C@H](CC(N)=O)NC(=O)[C@H](CC(N)=O)NC(=O)[C@H](CO)NC(=O)[C@H](CO)NC(=O)[C@H](Cc1c[nH]cn1)NC(=O)[C@H](CCCNC(=N)N)NC(=O)[C@H](CC(C)C)NC(=O)[C@H](Cc1ccccc1)NC(=O)[C@H](CC(=O)O)NC(=O)[C@H](C)NC(=O)[C@H](CC(C)C)NC(=O)[C@H](CCCNC(=N)N)NC(=O)[C@H](CCC(N)=O)NC(=O)[C@@H](NC(=O)[C@H](C)NC(=O)[C@@H]1CSSC[C@H](NC(=O)[C@@H](N)CCC(=O)O)C(=O)N[C@@H](CC(N)=O)C(=O)N[C@@H]([C@@H](C)O)C(=O)N[C@@H](C)C(=O)N[C@@H]([C@@H](C)O)C(=O)N1)[C@@H](C)O)C(=O)N[C@@H](CC(C)C)C(=O)N1CCC[C@H]1C(=O)N1CCC[C@H]1C(=O)N[C@H](C(=O)N[C@@H](CC(N)=O)C(=O)N[C@H](C(=O)NCC(=O)N[C@@H](CO)C(=O)N[C@@H](CC(N)=O)C(=O)N[C@H](C(=O)N1C[C@H](O)C[C@H]1C(N)=O)[C@@H](C)O)C(C)C)[C@@H](C)O` [PD080] (H-ECNTATCATQRLADFLRHSSNNLK([γGlu-C20 diacid])PILPPTNVGSNT[Hyp]-NH2; disulfide 2-7), the negative logarithm of the EC50 (pEC50) is 9.96. For the compound `CC[C@H](C)[C@H](NC(=O)[C@@H]1CCCN1C(=O)CNC(=O)[C@H](CC(C)C)NC(=O)[C@H](CC(N)=O)NC(=O)[C@H](CCCCNC(=O)COCCOCCNC(=O)COCCOCCNC(=O)CC[C@H](NC(=O)CCCCCCCCCCCCCCCCCCC(=O)O)C(=O)O)NC(=O)[C@H](CO)NC(=O)[C@H](CO)NC(=O)[C@H](Cc1c[nH]cn1)NC(=O)[C@H](CCCNC(=N)N)NC(=O)[C@H](CC(C)C)NC(=O)[C@H](Cc1ccccc1)NC(=O)[C@H](CC(=O)O)NC(=O)[C@H](C)NC(=O)[C@H](CC(C)C)NC(=O)[C@H](CCCNC(=N)N)NC(=O)[C@H](CCC(N)=O)NC(=O)[C@@H](NC(=O)[C@H](C)NC(=O)[C@@H]1CSSC[C@H](NC(=O)[C@@H](N)CCCNC(=N)N)C(=O)N[C@@H](CC(N)=O)C(=O)N[C@@H]([C@@H](C)O)C(=O)N[C@@H](C)C(=O)N[C@@H]([C@@H](C)O)C(=O)N1)[C@@H](C)O)C(=O)N[C@@H](CC(C)C)C(=O)N1CCC[C@H]1C(=O)N1CCC[C@H]1C(=O)N[C@H](C(=O)N[C@@H](CC(N)=O)C(=O)N[C@H](C(=O)NCC(=O)N[C@@H](CO)C(=O)N[C@@H](CC(N)=O)C(=O)N[C@H](C(=O)N1C[C@H](O)C[C@H]1C(N)=O)[C@@H](C)O)C(C)C)[C@@H](C)O` [PD091] (H-RCNTATCATQRLADFLRHSSK([AEEA-AEEA-γGlu-C20 diacid])NLGPILPPTNVGSNT[Hyp]-NH2; disulfide 2-7), the pEC50 was 10.52. With `CC[C@H](C)[C@H](NC(=O)[C@@H]1CCCN1C(=O)[C@H](CCCCNC(=O)CC[C@H](NC(=O)CCCCCCCCCCCCCCCCCCC(=O)O)C(=O)O)NC(=O)[C@H](CC(C)C)NC(=O)[C@H](CC(N)=O)NC(=O)[C@H](CC(N)=O)NC(=O)[C@H](CO)NC(=O)[C@H](CO)NC(=O)[C@H](Cc1c[nH]cn1)NC(=O)[C@H](CCCNC(=N)N)NC(=O)[C@H](CC(C)C)NC(=O)[C@H](Cc1ccccc1)NC(=O)[C@H](CCC(=O)O)NC(=O)[C@H](C)NC(=O)[C@H](CC(C)C)NC(=O)[C@H](CCCNC(=N)N)NC(=O)[C@H](CCC(N)=O)NC(=O)[C@@H](NC(=O)[C@H](C)NC(=O)[C@@H]1CSSC[C@H](N)C(=O)N[C@@H](CC(N)=O)C(=O)N[C@@H]([C@@H](C)O)C(=O)N[C@@H](C)C(=O)N[C@@H]([C@@H](C)O)C(=O)N1)[C@@H](C)O)C(=O)N[C@@H](CC(C)C)C(=O)N1CCC[C@H]1C(=O)N1CCC[C@H]1C(=O)N[C@H](C(=O)N[C@@H](CC(N)=O)C(=O)N[C@H](C(=O)NCC(=O)N[C@@H](CO)C(=O)N[C@@H](CC(N)=O)C(=O)N[C@H](C(=O)N1C[C@H](O)C[C@H]1C(N)=O)[C@@H](C)O)C(C)C)[C@@H](C)O` [PD053] (H-CNTATCATQRLAEFLRHSSNNLK([γGlu-C20 diacid])PILPPTNVGSNT[Hyp]-NH2; disulfide 1-6), the pEC50 is 10.12.

On to `CC[C@H](C)[C@H](NC(=O)[C@@H]1CCCN1C(=O)[C@H](CCCCNC(=O)CC[C@H](NC(=O)CCCCCCCCCCCCCCCCC(=O)O)C(=O)O)NC(=O)[C@H](CC(C)C)NC(=O)[C@H](CC(N)=O)NC(=O)[C@H](CC(N)=O)NC(=O)[C@H](CO)NC(=O)[C@H](CO)NC(=O)[C@H](Cc1c[nH]cn1)NC(=O)[C@H](CCCNC(=N)N)NC(=O)[C@H](CC(C)C)NC(=O)[C@H](Cc1ccccc1)NC(=O)[C@H](CC(=O)O)NC(=O)[C@H](C)NC(=O)[C@H](CC(C)C)NC(=O)[C@H](CCCNC(=N)N)NC(=O)[C@H](CCC(N)=O)NC(=O)[C@@H](NC(=O)[C@H](C)NC(=O)[C@@H]1CSSC[C@H](NC(=O)[C@@H](N)CCCNC(=N)N)C(=O)N[C@@H](CC(N)=O)C(=O)N[C@@H]([C@@H](C)O)C(=O)N[C@@H](C)C(=O)N[C@@H]([C@@H](C)O)C(=O)N1)[C@@H](C)O)C(=O)N[C@@H](CC(C)C)C(=O)N1CCC[C@H]1C(=O)N1CCC[C@H]1C(=O)N[C@H](C(=O)N[C@@H](CC(N)=O)C(=O)N[C@H](C(=O)NCC(=O)N[C@@H](CO)C(=O)N[C@@H](CC(N)=O)C(=O)N[C@H](C(=O)N1C[C@H](O)C[C@H]1C(N)=O)[C@@H](C)O)C(C)C)[C@@H](C)O` [PD107] (H-RCNTATCATQRLADFLRHSSNNLK([γGlu-C18 diacid])PILPPTNVGSNT[Hyp]-NH2; disulfide 2-7), for which the pEC50 was 10.57.
